Where “and” joins values, the source holds several entries; their conditions need not be identical. Equal entries are not always repeated.
Tested on: 883617-216-R-J1-PDC complex spheroid viability
Assay: Anticancer human tumor 883617-216-R-J1-PDC patient-derived bladder carcinoma cell line growth inhibition [POLQ]
Conditions: for viability, T/C: stronger effect = lower value; for IC50: curve of compound
Experimental: Multicellular complex tumor spheroid response to Polymerase (POL) inhibitors (novobiocin, ART-558, RP6685) in combination with a variety of drugs and investigational agents in selected tumor cell lines
The POL inhibitors (novobiocin, ART-558, and RP6685) were evaluated both individually and in combination with standard of care and investigational anticancer small molecules within a complex spheroid model of solid tumors. . Complex spheroids include a stromal component modeled by human endothelial cells (HUVEC) and fibroblasts modeled by human mesenchymal stem cells (MSCs). The concentration ranges selected for each drug and investigational agent were based upon clinically achievable concentrations if the clinical Cmax of the agent was known.
Compounds. The drugs and investigational agents: novobiocin (NSC847541), ART-558 (NSC835418), RP-6685 (NSC848927), peposertib (NSC802822), ceralasertib (NSC780249), elimusertib (NSC800525), camonsertib (NSC841442), AZD-1390 (NSC803789), olaparib (NSC753686), talazoparib (NSC767125), rucaparib (NSC756644), sotorasib (NSC818433), MRTX-1133 (NSC836407), SN-38 (NSC673596), topotecan (NSC609699), epotoside (NSC141540), doxorubicin (NSC123127), gemcitabine (NSC613327), 5-fluorouracil (NSC19893), paclitaxel (NSC125973), vemurafenib (NSC761431), MSA-2 (NSC828583), SN-011 (NSC837082), adavosertib (NSC754352), prexasertib (NSC758257), carboplatin (NSC241240) and oxaliplatin (NSC266046), were obtained from the National Cancer Institute (NCI) Developmental Therapeutics Program Chemical Repository (21). The FDA-approved anticancer drug set is available from the Developmental Therapeutics Program at https://dtp.cancer.gov/organization/dscb/obtaining/. […] The stock solutions were prepared in dimethyl sulfoxide (DMSO, Sigma-Aldrich, St. Louis, MO, cat. D2650), except for the platinum compounds which were prepared in saline (Quality Biological, Gaithersburg, MD, cat. 114-055-101), at 800-fold the tested concentration and stored at -70 degrees C prior to their use. All drugs and investigational agents were tested over a range starting from a high concentration at or near the clinical Cmax and decreasing in half-log increments. If the clinical Cmax for an agent had not been determined, the highest concentration tested was 10 microM, except for SN-38, which was tested at a high concentration of 1 microM.
Cell Culture. All cells were maintained in an incubator at 37 degrees C and 5% CO2 with 95% humidity. The PDC lines were cultured according to standard operating procedures established by the NCI PDMR (https://pdmr.cancer.gov). Table 3 of the manuscript, lists the cell lines along with the number of the three cell types plated to form the mct-spheroids and media for tumor cell growth. After thawing, all PDC lines, except 997537-175-T-J1-PDC and 415267-285-R-J2-PDC, were cultured in Matrigel-coated flasks prepared with a working solution of 1X Ham's F-12 nutrient mix, without supplementation (Thermo Fisher Scientific, cat. 11765054), 100 U/mL penicillin-streptomycin (Thermo Fisher Scientific, cat. 15140122), and 2.5% Matrigel (Corning Inc., Corning, NY, cat. 354248) for the first three passages. The two PDC lines 997537-175-T-J1-PDC and 415267-285-R-J2-PDC were cultured on uncoated flasks. The 857933-349-R-J2-PDC line was cultured in 6C/Colon 1B media containing advanced DMEM/F-12 (Thermo Fisher Scientific, cat. 12634028), 10 mM HEPES (Thermo Fisher Scientific, cat. 15630080), 1X GlutaMAX supplement (Thermo Fisher Scientific, cat. 35050061), 0.1 mg/mL primocin (InvivoGen, San Diego, CA, cat. ant-pm-2), 10% defined fetal bovine serum, heat inactivated (HyClone Laboratories Inc., Logan, UT, cat. SH30070.03HI), 50% L-WRN conditioned media (ATCC, cat. CRL-3276), 1.25 mM N-Acetyl-L-cysteine (Sigma-Aldrich, cat. A9165), 10 mM nicotinamide (Sigma-Aldrich, cat. N0636), 1X B-27 supplement (Thermo Fisher Scientific, cat. 17504044), 1X N-2 supplement (Thermo Fisher Scientific, cat. […]
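Note: spheroids exposed to compounds for seven days before readout.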
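Throughout, for viability, T/C: 100% = DMSO vehicle control viability.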

Compound | viability, T/C (compound 0.0316 µM) | viability, T/C (compound 0.1 µM) | viability, T/C (compound 0.316 µM) | viability, T/C (compound 1 µM) | viability, T/C (compound 3.16 µM) | viability, T/C (compound 10 µM) | IC50
C#Cc1c(F)ccc2cc(O)cc(-c3ncc4c(N5CC6CCC(C5)N6)nc(OCC56CCCN5CC(F)C6)nc4c3F)c12 (configuration not stated) | 98% and 83% and 93.6% | 95% and 94% and 84.2% | 101% and 82% and 104% | 95.3% and 81.1% and 88.5% | 94.2% and 83% and 85.1% | 72.5% and 74.3% and 83.1% | > 10 µM
C=CC(=O)N1CCN(c2nc(=O)n(-c3c(C)ccnc3C(C)C)c3nc(-c4c(O)cccc4F)c(F)cc23)C(C)C1 (configuration not stated) | 74.3% and 68% and 64% | 64.8% and 60.8% and 63.8% | 75.8% and 70.3% and 81.9% | 72.6% and 83.2% and 78.3% | 91.3% and 76.7% and 85% | 81.6% and 83.3% and 76.6% | > 10 µM
CC(C)n1c(=O)n(C)c2cnc3cc(F)c(-c4ccc(OCCCN5CCCCC5)nc4)cc3c21 | 96% and 105% and 102% | 90.3% and 101% and 98.8% | 112% and 103% and 111% | 106% and 108% and 94.5% | 87.5% and 84% and 102% | 52.9% and 72% and 69.1% | > 10 µM
CC1COCCN1c1cc(-c2ccnn2C)c2ccnc(-c3ccn[nH]3)c2n1 (configuration not stated) | 83.5% and 90% and 77.5% | 51.3% and 58.9% and 59.6% | 43.9% and 45.8% and 56.5% | 36.8% and 37.4% and 36.7% | 32.3% and 29.7% and 40.9% | 27.4% and 31.1% and 28.9% | 0.151 µM and 0.21 µM and 0.393 µM
CC1COCCN1c1cc(C2(O)CC3CCC(C2)O3)c2cnn(-c3ccn[nH]3)c2n1 (configuration not stated) | 73.6% and 75.5% and 72.3% | 55.3% and 49.3% and 45.5% | 50.6% and 44.3% and 45.2% | 30.4% and 30% and 34.4% | 23.1% and 26.1% and 31% | 22.6% and 20.5% and 20.6% | 0.213 µM and 0.137 µM and 0.135 µM
CC1COCCN1c1cc(C2(S(C)(=N)=O)CC2)nc(-c2ccnc3[nH]ccc23)n1 (configuration not stated) | 98.9% and 101% and 87.7% | 89.9% and 94.3% and 103% | 98.4% and 83.1% and 84% | 71% (2×) and 73.5% | 54.2% and 53.8% and 48.3% | 30.1% and 34.3% and 34.5% | 3.5 µM and 4.11 µM and 2.82 µM
CCc1cc2c(N3CCc4c(cc(Cn5ccnc5)cc4-c4cn(C)nc4C(F)(F)F)C3=O)cc(C)nc2c(OC)n1 | 106% and 92.1% and 103% | 91.4% and 85.8% and 99.9% | 116% and 83.7% and 101% | 91% and 107% and 80.5% | 75% and 69.3% and 71.5% | 54.1% and 46.2% and 47.7% | > 10 µM and 8.29 µM and 9.04 µM
CCc1cc2c(N3CCc4c(cc(Cn5ccnc5)cc4-c4cn(C)nc4C(F)(F)F)C3=O)ccnc2c(OC)n1 | 105% and 80.5% and 91.8% | 94% and 89.7% and 94.5% | 102% and 76.2% and 108% | 107% and 92.5% and 85.3% | 80.3% and 74.5% and 92% | 51% and 47.2% and 50.3% | > 10 µM and 8.89 µM
COc1cc2cc(C(=O)CCC(=O)O)sc2cc1OC | 95.8% and 105% and 103% | 112% and 90% and 89.7% | 91.7% and 102% and 96.7% | 99.3% and 108% and 87.7% | 105% and 96.4% and 83.4% | 104% and 107% and 93.9% | > 10 µM
COc1ccc([C@@H](O)c2cc(-c3ncnc4cc(N5CCOCC5)ccc34)c(F)cc2Cl)nn1 | 99% and 86.7% and 96.3% | 73% and 81.7% and 93.3% | 81.5% and 83.3% and 94% | 62.8% and 61.7% and 69% | 48.3% and 47.9% and 48.8% | 30.1% and 35.8% and 31.2% | 2.61 µM and 2.43 µM and 2.72 µM
O=C(Nc1ccc(O)c(NS(=O)(=O)c2ccc(F)cc2)c1)c1ccc(-c2ccccc2)cc1 | 87.6% and 93.4% and 107% | 107% and 88.9% and 92.8% | 91.6% and 80.3% and 81.8% | 89.6% and 92.9% and 90.9% | 99.8% and 81.8% and 76.2% | 75.6% and 74.6% and 59% | > 10 µM
